Experimental data: article PMC5659129, “Determinants of the Inhibition of DprE1 and CYP2C9 by Antitubercular Thiophenes” (Angewandte Chemie (International Ed. in English), 2017)
Converted amounts (≈) assume the structure as drawn. Read-outs that look alike come from different tables or passages of the source.

Assays:
[1] = tested on: Mtb WT; assay: microbe, parasite or virus in culture; type: cell-based, Mycobacterium tuberculosis; details: for MIC: Mycobacterium tuberculosis, 168 h
[2] = biological target: M. smegmatis DprE1 WT (Mycolicibacterium smegmatis, UniProt A0R607); assay: biochemical
[3] = biological target: T1, CYP2C9 (Homo sapiens, UniProt P11712); details: for IC50 ratio (CYP2C9 over DprE1): selectivity
[4] = biological target: T1, CYP2C9; assay: biochemical
[5] = tested on: Mtb Erdman; type: in vivo, BALB/c mouse; details: 3 weeks, acute phase
[6] = tested on: Mtb Erdman; type: in vivo, BALB/c mouse; details: 200 mg kg−1, oral, 4 weeks, chronic phase
[7] = biological target: CYP1A2 (Homo sapiens, UniProt P05177); details: microsomes
[8] = biological target: CYP3A4 (Homo sapiens, UniProt P08684); details: microsomes
[9] = biological target: CYP2D6 (Homo sapiens, UniProt P10635); details: microsomes
[10] = biological target: CYP2C19 (Homo sapiens, UniProt P33261); details: microsomes
[11] = biological target: hERG potassium channel (Homo sapiens, UniProt Q12809); assay: cell-based
[12] = Mini-Ames mutagenicity test
[13] = tested on: HepG2 cell line; assay: In vitro cytotoxicity assay, HepG2; details: up to a concentration of 100 μM
[14] = tested on: Vero cell line; assay: In vitro cytotoxicity assay (MTT), Vero; details: up to a concentration of 100 μM
Method: In vitro cytotoxicity assay. Vero epithelial cells (from African green monkey; ATCC
CCL-81) were cultured in Dulbecco’s modified Eagle’s medium (DMEM) supplemented
with 10% fetal bovine serum (FBS) and maintained in a humidified incubator (37°C in
5% CO2). Cells were dislodged with a cell scraper, collected by centrifugation,
resuspended in fresh medium at 10^6 cells/ml, dispensed into 96-well microtiter plates
(100 ml/well), and incubated for 18 h at 37°C. Two-fold serial dilutions of test
compounds in DMEM with FBS were subsequently added, and cells were incubated for
another 72 h. In triplicate studies, the cytopathic effects of compounds were evaluated
colorimetrically by using the 3-(4, 5- dimethyl-2-thiazolyl)-2, 5-diphenyl-2H-tetrazolium
bromide (MTT) cell proliferation assay (ATCC).

[15] = biological target: T1, CYP2C9; assay: in vitro; details: microsomes, pH 7.4
[16] = MABA, 7 days, 90% reduction in fluorescence

T1 sequence (P11712 whole entry): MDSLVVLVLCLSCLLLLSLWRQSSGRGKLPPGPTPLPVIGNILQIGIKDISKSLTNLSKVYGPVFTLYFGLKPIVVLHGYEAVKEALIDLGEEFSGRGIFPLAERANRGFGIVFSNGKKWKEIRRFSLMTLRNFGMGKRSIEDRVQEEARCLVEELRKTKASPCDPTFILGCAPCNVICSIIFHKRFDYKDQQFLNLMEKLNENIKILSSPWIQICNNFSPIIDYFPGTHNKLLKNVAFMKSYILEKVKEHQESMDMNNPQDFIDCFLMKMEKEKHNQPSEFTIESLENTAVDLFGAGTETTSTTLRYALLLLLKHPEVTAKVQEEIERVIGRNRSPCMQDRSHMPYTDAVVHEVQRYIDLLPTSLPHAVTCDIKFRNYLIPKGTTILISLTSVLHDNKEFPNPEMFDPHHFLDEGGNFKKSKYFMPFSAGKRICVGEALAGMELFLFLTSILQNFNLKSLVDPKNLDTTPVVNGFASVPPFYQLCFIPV
Sequence of M. smegmatis DprE1 WT (A0R607 whole entry): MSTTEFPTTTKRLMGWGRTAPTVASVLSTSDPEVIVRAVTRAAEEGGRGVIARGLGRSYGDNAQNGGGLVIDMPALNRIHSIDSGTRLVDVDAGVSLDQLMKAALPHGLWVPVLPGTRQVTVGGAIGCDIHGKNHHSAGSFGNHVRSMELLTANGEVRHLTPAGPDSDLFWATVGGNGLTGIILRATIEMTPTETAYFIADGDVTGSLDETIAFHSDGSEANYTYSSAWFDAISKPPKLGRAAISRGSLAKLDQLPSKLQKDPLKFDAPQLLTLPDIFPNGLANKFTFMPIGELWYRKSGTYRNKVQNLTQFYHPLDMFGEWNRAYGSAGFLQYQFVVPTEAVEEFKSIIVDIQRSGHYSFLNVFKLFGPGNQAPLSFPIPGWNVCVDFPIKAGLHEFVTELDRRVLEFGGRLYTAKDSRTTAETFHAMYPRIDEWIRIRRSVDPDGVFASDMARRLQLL
Sequence of CYP1A2 (P05177 whole entry): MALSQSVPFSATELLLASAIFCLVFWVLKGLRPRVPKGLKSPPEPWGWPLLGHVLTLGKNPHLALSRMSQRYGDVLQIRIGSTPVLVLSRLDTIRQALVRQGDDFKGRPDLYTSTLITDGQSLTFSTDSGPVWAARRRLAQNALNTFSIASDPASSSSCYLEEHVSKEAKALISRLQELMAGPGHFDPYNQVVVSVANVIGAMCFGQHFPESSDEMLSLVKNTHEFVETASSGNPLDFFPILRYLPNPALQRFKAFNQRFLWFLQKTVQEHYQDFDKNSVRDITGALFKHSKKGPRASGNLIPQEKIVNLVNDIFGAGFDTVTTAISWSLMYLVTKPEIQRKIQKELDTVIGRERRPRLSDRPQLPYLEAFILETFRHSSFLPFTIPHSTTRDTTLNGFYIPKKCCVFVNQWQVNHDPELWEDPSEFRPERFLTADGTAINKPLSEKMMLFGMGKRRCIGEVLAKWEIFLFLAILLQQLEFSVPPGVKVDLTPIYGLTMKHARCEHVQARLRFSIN
Sequence of CYP2C19 (P33261 whole entry): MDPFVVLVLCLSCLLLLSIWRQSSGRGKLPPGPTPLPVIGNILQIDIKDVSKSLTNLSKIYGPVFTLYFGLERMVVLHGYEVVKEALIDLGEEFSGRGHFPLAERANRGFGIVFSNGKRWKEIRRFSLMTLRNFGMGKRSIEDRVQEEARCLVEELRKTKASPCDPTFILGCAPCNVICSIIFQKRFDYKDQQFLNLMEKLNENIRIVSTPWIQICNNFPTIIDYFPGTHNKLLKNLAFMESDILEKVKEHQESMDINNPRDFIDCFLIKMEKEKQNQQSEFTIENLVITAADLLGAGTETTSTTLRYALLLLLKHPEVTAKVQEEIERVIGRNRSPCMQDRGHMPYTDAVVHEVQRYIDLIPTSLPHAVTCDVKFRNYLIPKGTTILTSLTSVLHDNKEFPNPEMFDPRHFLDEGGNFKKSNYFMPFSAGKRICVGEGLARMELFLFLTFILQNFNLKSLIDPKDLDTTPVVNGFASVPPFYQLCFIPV
Sequence of hERG potassium channel (Q12809 whole entry): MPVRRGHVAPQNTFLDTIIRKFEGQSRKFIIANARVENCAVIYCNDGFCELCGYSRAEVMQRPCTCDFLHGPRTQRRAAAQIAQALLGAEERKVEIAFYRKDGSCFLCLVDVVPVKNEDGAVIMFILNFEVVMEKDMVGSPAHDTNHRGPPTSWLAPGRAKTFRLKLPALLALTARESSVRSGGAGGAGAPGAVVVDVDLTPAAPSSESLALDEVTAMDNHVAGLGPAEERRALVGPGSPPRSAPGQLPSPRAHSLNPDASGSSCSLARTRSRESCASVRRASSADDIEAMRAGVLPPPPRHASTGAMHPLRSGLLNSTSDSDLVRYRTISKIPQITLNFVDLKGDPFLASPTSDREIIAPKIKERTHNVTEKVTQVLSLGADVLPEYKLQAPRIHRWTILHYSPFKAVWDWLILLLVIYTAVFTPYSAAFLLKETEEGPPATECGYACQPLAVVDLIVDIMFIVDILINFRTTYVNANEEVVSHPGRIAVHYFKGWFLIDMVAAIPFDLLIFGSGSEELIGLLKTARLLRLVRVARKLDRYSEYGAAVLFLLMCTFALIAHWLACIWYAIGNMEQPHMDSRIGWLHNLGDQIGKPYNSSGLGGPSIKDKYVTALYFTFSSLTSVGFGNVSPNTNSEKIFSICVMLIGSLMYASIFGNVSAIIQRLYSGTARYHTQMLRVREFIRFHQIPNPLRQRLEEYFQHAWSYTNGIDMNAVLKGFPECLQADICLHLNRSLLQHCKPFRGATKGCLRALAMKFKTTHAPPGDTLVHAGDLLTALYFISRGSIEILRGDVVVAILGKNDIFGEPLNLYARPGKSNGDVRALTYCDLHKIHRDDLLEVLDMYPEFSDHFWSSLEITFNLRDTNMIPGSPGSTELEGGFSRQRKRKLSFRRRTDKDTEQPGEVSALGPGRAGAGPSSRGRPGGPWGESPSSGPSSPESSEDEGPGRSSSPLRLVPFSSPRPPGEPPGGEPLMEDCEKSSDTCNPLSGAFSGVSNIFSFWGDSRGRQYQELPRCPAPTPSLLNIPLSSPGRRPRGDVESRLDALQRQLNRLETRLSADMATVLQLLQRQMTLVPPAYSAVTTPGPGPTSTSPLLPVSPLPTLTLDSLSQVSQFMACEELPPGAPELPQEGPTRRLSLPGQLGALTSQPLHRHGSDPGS
Sequence of CYP3A4 (P08684 whole entry): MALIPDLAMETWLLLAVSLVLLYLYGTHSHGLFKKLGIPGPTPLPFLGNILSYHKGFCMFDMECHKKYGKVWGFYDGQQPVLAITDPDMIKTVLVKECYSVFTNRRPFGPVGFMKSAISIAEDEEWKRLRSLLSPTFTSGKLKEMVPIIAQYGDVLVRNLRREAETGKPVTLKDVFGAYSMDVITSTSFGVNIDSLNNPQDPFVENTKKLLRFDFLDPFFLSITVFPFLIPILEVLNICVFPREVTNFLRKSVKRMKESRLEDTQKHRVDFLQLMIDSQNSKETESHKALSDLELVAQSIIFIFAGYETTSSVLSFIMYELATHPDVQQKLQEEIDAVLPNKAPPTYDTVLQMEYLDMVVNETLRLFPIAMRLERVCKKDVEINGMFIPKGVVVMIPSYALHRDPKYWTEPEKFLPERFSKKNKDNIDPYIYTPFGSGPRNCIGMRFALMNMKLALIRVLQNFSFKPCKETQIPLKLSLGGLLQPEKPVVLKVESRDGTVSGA
Sequence of CYP2D6 (P10635 whole entry): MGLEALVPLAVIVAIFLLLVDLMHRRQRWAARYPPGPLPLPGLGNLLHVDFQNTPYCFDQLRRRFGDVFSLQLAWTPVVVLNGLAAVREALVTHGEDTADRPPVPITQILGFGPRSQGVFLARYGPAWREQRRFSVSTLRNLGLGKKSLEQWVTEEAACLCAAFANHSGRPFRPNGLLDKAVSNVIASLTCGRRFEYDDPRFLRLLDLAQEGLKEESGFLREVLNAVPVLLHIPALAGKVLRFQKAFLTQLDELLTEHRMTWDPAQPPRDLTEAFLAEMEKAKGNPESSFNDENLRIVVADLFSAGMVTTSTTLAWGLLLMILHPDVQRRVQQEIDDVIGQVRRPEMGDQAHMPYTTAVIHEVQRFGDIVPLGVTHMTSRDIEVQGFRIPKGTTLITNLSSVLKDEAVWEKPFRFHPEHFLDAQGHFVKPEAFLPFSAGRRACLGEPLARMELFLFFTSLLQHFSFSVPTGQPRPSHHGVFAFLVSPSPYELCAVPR

In the case of `CCOC(=O)NC(=O)c1cc(F)sc1NC(=O)c1nc2ccccc2s1` [TCA481], the “more potent than TCA1 based on MIC” value ([1]; MIC relative to TCA1) is reported as 5 fold and the MIC [1, 16] is reported as 0.046 ± 0.0025 µM (≈ 0.0181 µg/mL).

Compound `CCOC(=O)NC(=O)c1ccsc1NC(=O)c1nc2ccccc2s1` [TCA1] has an MIC [1, 16] of 0.23 ± 0.012 µM (≈ 0.0863 µg/mL).

In the case of `Cc1ccnc(NC(=O)c2ccsc2NC(=O)c2ccn3cnnc3c2)n1` [TCA711], the IC50 ([2]; Figure 4D, read-out: DprE1 IC50) is reported as 30 nM, the “IC50 ratio (CYP2C9 over DprE1)” value [3] is reported as 1515 and the IC50 [4] is reported as > 50000 nM.

`Cc1ccnc(NC(=O)c2ccsc2NC(=O)c2nc3cnccc3s2)n1` [TCA787] showed an IC50 ([2]; M. smegmatis DprE1, Table 1, read-out: IC50 DprE1 WT) of 96 ± 38 nM and an MIC [1, 16] of 0.44 ± 0.12 µM (≈ 0.174 µg/mL).

In the case of `CCOC(=O)NC(=O)c1ccsc1NC(=O)c1nc2cnccc2s1` [TCA007], the MIC [1, 16] is reported as 0.089 ± 0.0066 µM (≈ 0.0335 µg/mL), the “reduction of bacterial load in lung” value ([5]; 50 mg kg−1, oral) is reported as 1.7 log10 CFU and the “reduction of bacterial load in lung” value ([5]; 100 mg kg−1, oral) is reported as 2.3 log10 CFU. The “reduction of CFU in mouse lungs” value [6] was > 1.7 log10 CFU, the “inhibitory effect for CYP2C9” value ([3]; microsomes) was “strong inhibitory effect” and the “inhibition of CYP1A2” value [7] was “no inhibition”. For the same compound, the “inhibition of CYP3A4” value [8] was “no inhibition”, the “inhibition of CYP2D6” value [9] was “no inhibition” and the “inhibition of CYP2C19” value [10] was “no inhibition”. For the same compound, the IC50 [11] was > 30000 nM, the genetic toxicity [12] was “no genetic toxicity” and the “cytotoxicity against HepG2” value [13] was “not cytotoxic”. The “cytotoxicity against Vero” value [14] was “not cytotoxic”.

With `O=C(Nc1sccc1C(=O)Nc1ncccn1)c1nc2cnccc2s1` [TCA020] the “MIC WT” value [1, 16] was 2.5 ± 0.48 µM (≈ 0.956 µg/mL) and the MIC [1, 16] was 2.5 µM (≈ 0.956 µg/mL).

With `CCOC(=O)NC(=O)c1ccsc1NC(=O)c1ccn2cnnc2c1` [TCA582] the “IC50 ratio (CYP2C9 over DprE1)” value [3] was 33 and the IC50 [15] was 1830 nM.
